Data: patent US20260060250A1, “HERBICIDAL PYRIDONE DERIVATIVES” (SYNGENTA CROP PROTECTION AG, priority 2022, published 2026)

Columns and labels:
Format in all cases: in vivo
Conditions in all cases: evaluated after 13 days
[1] = tested on: Amaranthus palmeri (AMAPA); assay: Pre-emergence Test (Table B1); design: key: 5=81-100%; 4=61-80%; 3=41-60%; 2=21-40%; 1=0-20%; 0=inactive
Setaria faberi (SETFA) [2] = assay: Pre-emergence Test (Table B1); design: key: 5=81-100%; 4=61-80%; 3=41-60%; 2=21-40%; 1=0-20%; 0=inactive
[3] = tested on: Echinochloa crus-galli (ECHCG); assay: Pre-emergence Test (Table B1); design: key: 5=81-100%; 4=61-80%; 3=41-60%; 2=21-40%; 1=0-20%; 0=inactive
[4] = tested on: Amaranthus retroflexus (AMARE); assay: Pre-emergence Test (Table B1)
Zea mays (ZEAMX) [5] = assay: Pre-emergence Test (Table B1); design: key: 5=81-100%; 4=61-80%; 3=41-60%; 2=21-40%; 1=0-20%; 0=inactive
[6] = tested on: Ipomoea hederacea (IPOHE); assay: Pre-emergence Test (Table B1); design: key: 5=81-100%; 4=61-80%; 3=41-60%; 2=21-40%; 1=0-20%; 0=inactive
[7] = tested on: Amaranthus palmeri (AMAPA); assay: Post-emergence Test (Table B2)
Protocol: (§1) Seeds of a variety of test species are sown in standard soil in pots (Amaranthus palmeri (AMAPA), Setaria faberi (SETFA), Echinochloa crus-galli (ECHCG), (Amaranthus retroflexus (AMARE), Zea mays (ZEAMX), Ipomoea hederacea (IPOHE)). After 8 days cultivation under controlled conditions in a glasshouse (at 24° C./16° C., day/night; 14 hours light; 65% humidity), the plants are sprayed with an aqueous spray solution derived from the formulation of the technical active ingredient in acetone/water (50:50) solution containing 0.5% Tween 20 (polyoxyethelyene sorbitan monolaurate, CAS RN 9005-64-5). Compounds are applied at 1000 g/ha unless otherwise stated. The test plants are then grown in a glasshouse under controlled conditions in a glasshouse (at 24° C./16° C., day/night; 14 hours light; 65% humidity) and watered twice daily. After 13 days the test is evaluated for the percentage damage caused to the plant.

[8] = tested on: Amaranthus retroflexus (AMARE); assay: Post-emergence Test (Table B2)
Protocol: as §1

Setaria faberi (SETFA) [9] = assay: Post-emergence Test (Table B2)
Protocol: as §1

[10] = tested on: Echinochloa crus-galli (ECHCG); assay: Post-emergence Test (Table B2)
Protocol: as §1

[11] = tested on: Ipomoea hederacea (IPOHE); assay: Post-emergence Test (Table B2)
Protocol: as §1

Zea mays (ZEAMX) [12] = assay: Post-emergence Test (Table B2)
Protocol: as §1

[13] = lower rate of 250 g per hectare

SMILES	percentage damage caused to the plant, AMAPA ([1]; 1000 g/ha)	percentage damage caused to the plant, SETFA (Setaria faberi (SETFA) [2]; 1000 g/ha)	percentage damage caused to the plant, ECHCG ([3]; 1000 g/ha)	percentage damage caused to the plant, AMARE ([4]; 1000 g/ha)	percentage damage caused to the plant, ZEAMX (Zea mays (ZEAMX) [5]; 1000 g/ha)	percentage damage caused to the plant, IPOHE ([6]; 1000 g/ha)	percentage damage caused to the plant, AMAPA ([7]; 1000 g/ha)	percentage damage caused to the plant, AMARE ([8]; 1000 g/ha)	percentage damage caused to the plant, SETFA (Setaria faberi (SETFA) [9]; 1000 g/ha)	percentage damage caused to the plant, ECHCG ([10]; 1000 g/ha)	percentage damage caused to the plant, IPOHE ([11]; 1000 g/ha)	percentage damage caused to the plant, ZEAMX (Zea mays (ZEAMX) [12]; 1000 g/ha)	percentage damage caused to the plant, AMAPA [1, 13]	percentage damage caused to the plant, SETFA (Setaria faberi (SETFA) [2]; [13])	percentage damage caused to the plant, ECHCG [3, 13]	percentage damage caused to the plant, AMARE [4, 13]	percentage damage caused to the plant, ZEAMX (Zea mays (ZEAMX) [5]; [13])	percentage damage caused to the plant, IPOHE [6, 13]	percentage damage caused to the plant, AMAPA [7, 13]	percentage damage caused to the plant, AMARE [8, 13]	further results
C=CC(C)OC(=O)c1cc(-c2c(C)n(CC)c(-c3ccc(Cl)c(Cl)c3)c(C(=O)O)c2=O)c(F)cc1Cl (stereo not drawn) [Compound 21, 5-[4-chloro-2-fluoro-5-(1-methylallyloxycarbonyl)phenyl]-2-(3,4-dichlorophenyl)-1-ethyl-6-methyl-4-oxo-pyridine-3-carboxylic acid]	5 (5=81-100%)	2 (2=21-40%)	4 (4=61-80%)	5 (5=81-100%)	0	3 (3=41-60%)	5 (5=81-100%)	5 (5=81-100%)	3 (3=41-60%)	4 (4=61-80%)	3 (3=41-60%)	2 (2=21-40%)	–	–	–	–	–	–	–	–	–
CC#CC(C)OC(=O)c1cc(-c2c(C)n(CC)c(-c3ccc(Cl)c(Cl)c3)c(C(=O)O)c2=O)c(F)cc1Cl (stereo not drawn) [Compound 22, 5-[4-chloro-2-fluoro-5-(1-methylbut-2-ynoxycarbonyl)phenyl]-2-(3,4-dichlorophenyl)-1-ethyl-6-methyl-4-oxo-pyridine-3-carboxylic acid]	–	–	–	–	–	–	–	–	–	–	–	–	5 (5=81-100%)	1 (1=0-20%)	1 (1=0-20%)	5 (5=81-100%)	1 (1=0-20%)	1 (1=0-20%)	5 (5=81-100%)	5 (5=81-100%)	percentage damage caused to the plant, SETFA (Setaria faberi (SETFA) [9]; [13]): 5 (5=81-100%); percentage damage caused to the plant, ECHCG [10, 13]: 5 (5=81-100%); percentage damage caused to the plant, IPOHE [11, 13]: 5 (5=81-100%); percentage damage caused to the plant, ZEAMX (Zea mays (ZEAMX) [12]; [13]): 3 (3=41-60%)
CCn1c(C)c(-c2cc(C(=O)OC3CCC3)c(Cl)cc2F)c(=O)c(C(=O)O)c1-c1ccc(Cl)c(Cl)c1 [Compound 23, 5-[4-chloro-5-(cyclobutoxycarbonyl)-2-fluoro-phenyl]-2-(3,4-dichlorophenyl)-1-ethyl-6-methyl-4-oxo-pyridine-3-carboxylic acid]	5 (5=81-100%)	5 (5=81-100%)	5 (5=81-100%)	5 (5=81-100%)	2 (2=21-40%)	4 (4=61-80%)	5 (5=81-100%)	5 (5=81-100%)	5 (5=81-100%)	4 (4=61-80%)	2 (2=21-40%)	2 (2=21-40%)	–	–	–	–	–	–	–	–	–
CCn1c(C)c(-c2cc(C(=O)OC3CCCC3)c(Cl)cc2F)c(=O)c(C(=O)O)c1-c1ccc(Cl)c(Cl)c1 [Compound 24, 5-[4-chloro-5-(cyclopentoxycarbonyl)-2-fluoro-phenyl]-2-(3,4-dichlorophenyl)-1-ethyl-6-methyl-4-oxo-pyridine-3-carboxylic acid]	5 (5=81-100%)	1 (1=0-20%)	1 (1=0-20%)	5 (5=81-100%)	0	3 (3=41-60%)	5 (5=81-100%)	5 (5=81-100%)	5 (5=81-100%)	5 (5=81-100%)	4 (4=61-80%)	3 (3=41-60%)	–	–	–	–	–	–	–	–	–
CCn1c(C)c(-c2cc(C(=O)OC(C)COC)c(Cl)cc2F)c(=O)c(C(=O)O)c1-c1ccc(Cl)c(Cl)c1 (stereo not drawn) [Compound 26, 5-[4-chloro-2-fluoro-5-(2-methoxy-1-methyl-ethoxy)carbonyl-phenyl]-2-(3,4-dichlorophenyl)-1-ethyl-6-methyl-4-oxo-pyridine-3-carboxylic acid]	5 (5=81-100%)	4 (4=61-80%)	4 (4=61-80%)	5 (5=81-100%)	0	3 (3=41-60%)	5 (5=81-100%)	5 (5=81-100%)	5 (5=81-100%)	5 (5=81-100%)	5 (5=81-100%)	5 (5=81-100%)	–	–	–	–	–	–	–	–	–
CCn1c(C)c(-c2cc(C(=O)OC3CC3)c(Cl)cc2F)c(=O)c(C(=O)O)c1-c1ccc(C#N)c(F)c1 [Compound 39, 5-[4-chloro-5-(cyclopropoxycarbonyl)-2-fluoro-phenyl]-2-(4-cyano-3-fluoro-phenyl)-1-ethyl-6-methyl-4-oxo-pyridine-3-carboxylic acid]	–	–	–	–	–	–	–	–	–	–	–	–	5 (5=81-100%)	0	0	5 (5=81-100%)	0	4 (4=61-80%)	5 (5=81-100%)	5 (5=81-100%)	percentage damage caused to the plant, SETFA (Setaria faberi (SETFA) [9]; [13]): 5 (5=81-100%); percentage damage caused to the plant, ECHCG [10, 13]: 4 (4=61-80%); percentage damage caused to the plant, IPOHE [11, 13]: 4 (4=61-80%); percentage damage caused to the plant, ZEAMX (Zea mays (ZEAMX) [12]; [13]): 5 (5=81-100%)
CCn1c(C)c(-c2cc(C(=O)OC(C)CC(=O)OC)c(Cl)cc2F)c(=O)c(C(=O)O)c1-c1ccc(Cl)c(Cl)c1 (stereo not drawn) [Compound 42, 5-[4-chloro-2-fluoro-5-(3-methoxy-1-methyl-3-oxo-propoxy)carbonyl-phenyl]-2-(3,4-dichlorophenyl)-1-ethyl-6-methyl-4-oxo-pyridine-3-carboxylic acid]	–	–	–	–	–	–	–	–	–	–	–	–	1 (1=0-20%)	0	0	3 (3=41-60%)	1 (1=0-20%)	0	4 (4=61-80%)	5 (5=81-100%)	percentage damage caused to the plant, SETFA (Setaria faberi (SETFA) [9]; [13]): 2 (2=21-40%); percentage damage caused to the plant, ECHCG [10, 13]: 2 (2=21-40%); percentage damage caused to the plant, IPOHE [11, 13]: 3 (3=41-60%); percentage damage caused to the plant, ZEAMX (Zea mays (ZEAMX) [12]; [13]): 3 (3=41-60%)
C#CCC(C)OC(=O)c1cc(-c2c(C)n(CC)c(-c3ccc(Cl)c(Cl)c3)c(C(=O)O)c2=O)c(F)cc1Cl (stereo not drawn) [Compound 43, 5-[4-chloro-2-fluoro-5-(1-methylbut-3-ynoxycarbonyl)phenyl]-2-(3,4-dichlorophenyl)-1-ethyl-6-methyl-4-oxo-pyridine-3-carboxylic acid]	–	–	–	–	–	–	–	–	–	–	–	–	0	0	0	2 (2=21-40%)	0	0	5 (5=81-100%)	5 (5=81-100%)	percentage damage caused to the plant, SETFA (Setaria faberi (SETFA) [9]; [13]): 3 (3=41-60%); percentage damage caused to the plant, ECHCG [10, 13]: 4 (4=61-80%); percentage damage caused to the plant, IPOHE [11, 13]: 2 (2=21-40%); percentage damage caused to the plant, ZEAMX (Zea mays (ZEAMX) [12]; [13]): 4 (4=61-80%)
